Read-outs that look alike come from different tables or passages of the source. Bounds are passed on as bounds.

The test has as its target T1, JNK1 (Homo sapiens, UniProt P45983).
T1 construct: purchased Carna Biosciences
Description: JNK1 biochemical assays (one or more of: time resolved fluorescence, Z'-LYTE Cascade, radioactive).

[1] abbreviates: one or more of the JNK1 biochemical assays, read-out: Act. Level (JNK1 IC50 activity level).
[2] abbreviates: Table 3, JNK1 IC50 activity level, read-out: Act. Level.
Setting [3] is: Table 2, JNK1 IC50 activity level, read-out: Act. Level.
Setting [4] is: tested in one or more of the JNK1 biochemical assays, read-out: Act. Level (JNK1 biochemical assay IC50 activity level).

T1 sequence (P45983 whole entry): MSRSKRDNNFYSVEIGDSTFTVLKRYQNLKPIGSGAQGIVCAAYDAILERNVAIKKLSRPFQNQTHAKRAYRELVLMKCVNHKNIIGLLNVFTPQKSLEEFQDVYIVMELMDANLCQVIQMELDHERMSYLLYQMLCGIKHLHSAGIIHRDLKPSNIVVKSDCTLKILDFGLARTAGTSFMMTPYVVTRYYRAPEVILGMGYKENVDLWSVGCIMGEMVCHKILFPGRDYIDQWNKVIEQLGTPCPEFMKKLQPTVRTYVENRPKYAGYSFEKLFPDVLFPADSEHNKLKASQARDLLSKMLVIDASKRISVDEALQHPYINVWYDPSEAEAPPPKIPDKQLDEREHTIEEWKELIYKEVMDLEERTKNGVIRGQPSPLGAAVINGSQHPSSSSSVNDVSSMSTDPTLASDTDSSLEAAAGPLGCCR

Turning to `NC(=O)c1cnc(N[C@H]2CC[C@H](O)CC2)nc1NCCC1CCC1` [Example 219, 4-(2-cyclobutylethylamino)-2-((1r,4r)-4-hydroxycyclohexylamino)pyrimidine-5-carboxamide], the IC50 under setting [1] was less than 200 nM. The same measure, in the same setting: with `CCC(C)(CC)Nc1ncc(C(N)=O)c(N[C@@H]2CC[C@@H](C)[C@H](O)C2)n1` [Example 345, 4-((1R,3R,4R)-3-hydroxy-4-methylcyclohexylamino)-2-(3-methylpentan-3-ylamino)pyrimidine-5-carboxamide] the figure was less than 200 nM. As for `CO[C@H]1CC[C@H](Nc2ncc(C#N)c(N[C@@H]3CCC[C@](C)(O)C3)n2)CC1` [Example C-19, 4-((1R,3S)-3-hydroxy-3-methylcyclohexylamino)-2-((1r,4R)-4-methoxycyclohexylamino) pyrimidine-5-carbonitrile], under setting [2], the IC50 was less than 200 nM.

`NC(=O)c1cnc(NC23CCC(F)(CC2)CC3)nc1N[C@@H]1CCCC[C@H](O)C1` [Example 335, 2-(4-fluorobicyclo[2.2.2]octan-1-ylamino)-4-((1R,3S)-3-hydroxycycloheptylamino)pyrimidine-5-carboxamide]: the IC50 under setting [1] is less than 200 nM.

As for `CCCNc1ncc(C(N)=O)c(Nc2ccccc2)n1` [Example B-68, 4-(phenylamino)-2-(propylamino)pyrimidine-5-carboxamide], the IC50 under setting [3] was 200 to 800 nM. Same read-out and setting: then `NC(=O)c1cnc(N2CCC(C(N)=O)CC2)nc1Nc1ccccc1` [Example B-37, 2-(4-carbamoylpiperidin-1-yl)-4-(phenylamino)pyrimidine-5-carboxamide], with 1000 to 10000 nM.

On to `CCO[C@H]1CC[C@H](Nc2ncc(C(N)=O)c(N[C@@H]3CCC[C@H]3CO)n2)CC1` [Example 259, 2-((1r,4R)-4-ethoxycyclohexylamino)-4-((1R,2R)-2-(hydroxymethyl)cyclopentylamino)pyrimidine-5-carboxamide], for which the IC50 under setting [1] was less than 200 nM. Same read-out and setting: with `CO[C@H]1CC[C@H](Nc2ncc(C(N)=O)c(N[C@H](C)C(C)(C)C)n2)CC1` [Example 279, 4-((R)-3,3-dimethylbutan-2-ylamino)-2-((1r,4R)-4-methoxycyclohexylamino)pyrimidine-5-carboxamide] the figure was less than 200 nM. For `NC(=O)c1cnc(N[C@H]2CC[C@H](N)CC2)nc1Nc1ccccc1` [Example B-7, 2-((1r,4r)-4-aminocyclohexylamino)-4-(phenylamino)pyrimidine-5-carboxamide], the IC50 under setting [3] was less than 200 nM. Take `C[C@@H]1CC[C@@H](Nc2nc(NC3CCC3)ncc2C(N)=O)C[C@H]1O` [Example 285, 2-(cyclobutylamino)-4-((1R,3R,4R)-3-hydroxy-4-methylcyclohexylamino)pyrimidine-5-carboxamide]: the IC50 under setting [1] was less than 200 nM.

For the molecule `CC1(Nc2nc(N[C@H]3CC[C@H](OC4CC4)CC3)ncc2C(N)=O)CCC1` [Example 400, 2-((1r,4r)-4-cyclopropoxycyclohexylamino)-4-(1-methylcyclobutylamino)pyrimidine-5-carboxamide], under setting [1], the IC50 is less than 200 nM. Consider `CCO[C@H]1CC[C@H](Nc2ncc(C(N)=O)c(N[C@@H]3CCOC3)n2)CC1` [Example A-167, 2-((1r,4R)-4-ethoxycyclohexylamino)-4-((R)-tetrahydrofuran-3-ylamino)pyrimidine-5-carboxamide], for which, under setting [4], the IC50 was less than 200 nM. Take `C[C@@H]1CC[C@@H](Nc2nc(NC34CC(C(C)(C)C)(C3)C4)ncc2C(N)=O)C[C@H]1O` [Example 489, 2-(3-tert-butylbicyclo[1.1.1]pentan-1-ylamino)-4-((1R,3R,4R)-3-hydroxy-4-methylcyclohexylamino)pyrimidine-5-carboxamide]: under setting [1], the IC50 was less than 200 nM. Take `NC(=O)c1cnc(NCc2cccnc2)nc1Nc1ccccc1` [Example B-51, 4-(phenylamino)-2-(pyridin-3-ylmethylamino)pyrimidine-5-carboxamide]: the IC50 under setting [3] lay within 200 to 800 nM. Consider `CC(C)CNc1nc(N[C@H]2CC[C@H](O)CC2)ncc1C#N` [Example C-55, 2-((1r,4r)-4-hydroxycyclohexylamino)-4-(isobutylamino)pyrimidine-5-carbonitrile], for which the IC50 under setting [2] lay within 1000 to 10000 nM. For the molecule `CCC(C)(CC)Nc1nc(N[C@H]2CC[C@H](O)CC2)ncc1C(N)=O` [Example 262, 2-((1r,4r)-4-hydroxycyclohexylamino)-4-(3-methylpentan-3-ylamino)pyrimidine-5-carboxamide], the IC50 under setting [1] is less than 200 nM. In the case of `CC(C)Nc1nc(NC2CCC3(CC2)OCCO3)ncc1C(N)=O` [Example A-11, 2-(1,4-dioxaspiro[4.5]decan-8-ylamino)-4-(isopropylamino)pyrimidine-5-carboxamide], the IC50 under setting [4] was 200 to 800 nM.

Consider `NC(=O)c1cnc(N[C@H]2CC[C@H](O)CC2)nc1NC12CC(C(F)(F)F)(C1)C2` [Example 440, 2-((1r,4r)-4-hydroxycyclohexylamino)-4-(3-(trifluoromethyl)bicyclo[1.1.1]pentan-1-ylamino)pyrimidine-5-carboxamide], for which the IC50 under setting [1] was less than 200 nM.

As to `C[C@]1(O)CCC[C@@H](Nc2nc(NC3CC3)ncc2C(N)=O)C1` [Example 378, 2-(cyclopropylamino)-4-((1R,3S)-3-hydroxy-3-methylcyclohexylamino)pyrimidine-5-carboxamide], under setting [1], the IC50 was less than 200 nM. Regarding `CN(C)C(=O)C(C)(C)C1CCC(Nc2ncc(C#N)c(N[C@@H]3CCC[C@H](O)C3)n2)CC1` (stereo partly drawn) [Example C-34, 2-(4-(5-cyano-4-((1R,3S)-3-hydroxycyclohexylamino)pyrimidin-2-ylamino)cyclohexyl)-N,N,2-trimethylpropanamide], under setting [2], the IC50 is less than 200 nM.

In the case of `CCO[C@H]1CC[C@H](Nc2ncc(C#N)c(N[C@@H]3CCC[C@](C)(O)C3)n2)CC1` [Example C-28, 2-((1r,4R)-4-ethoxycyclohexylamino)-4-((1R,3S)-3-hydroxy-3-methylcyclohexylamino) pyrimidine-5-carbonitrile], the IC50 under setting [2] was less than 200 nM. On to `NC(=O)c1cnc(NC23CCC(O)(CC2)CC3)nc1NC12CC(C1)C2` [Example 417, 4-(bicyclo[1.1.1]pentan-1-ylamino)-2-(4-hydroxybicyclo[2.2.2]octan-1-ylamino)pyrimidine-5-carboxamide], for which the IC50 under setting [1] was less than 200 nM. For `N#Cc1cnc(NC2CCOCC2)nc1N[C@@H]1CCC[C@H](O)C1` [Example C-5, 4-((1R,3S)-3-hydroxycyclohexylamino)-2-(tetrahydro-2H-pyran-4-ylamino)pyrimidine-5-carbonitrile], the IC50 under setting [2] is 200 to 800 nM.

Take `NC(=O)c1cnc(N[C@H]2CC[C@H](OCC(F)(F)F)CC2)nc1N[C@@H]1CCC[C@@H]1CO` [Example 266, 4-((1R,2S)-2-(hydroxymethyl)cyclopentylamino)-2-((1r,4R)-4-(2,2,2-trifluoroethoxy)cyclohexylamino)pyrimidine-5-carboxamide]: the IC50 under setting [1] is less than 200 nM. `CO[C@H]1CC[C@H](Nc2ncc(C(N)=O)c(N[C@@H](C)C(C)C)n2)CC1` [Example 283, 2-((1r,4S)-4-methoxycyclohexylamino)-4-((S)-3-methylbutan-2-ylamino)pyrimidine-5-carboxamide]: the IC50 under setting [1] is less than 200 nM.

`COC[C@H]1CC[C@@H](Nc2nc(N[C@@H]3CCN(C(C)=O)C3)ncc2C(N)=O)CC1` [Example A-84, 2-((R)-1-acetylpyrrolidin-3-ylamino)-4-((1s,4S)-4-(methoxymethyl)cyclohexylamino)pyrimidine-5-carboxamide]: under setting [4], the IC50 was in the range of 200 to 800 nM. As to `NC(=O)c1cnc(N[C@H]2CC[C@H](OC3CC3)CC2)nc1N[C@@H]1CCC[C@H](O)C1` [Example 205, 2-((1r,4R)-4-cyclopropoxycyclohexylamino)-4-((1R,3S)-3-hydroxycyclohexylamino)pyrimidine-5-carboxamide], the IC50 under setting [1] is less than 200 nM.

For the molecule `CN(C)C(=O)[C@H]1CC[C@H](Nc2ncc(C(N)=O)c(N[C@@H]3CCC[C@H](O)C3)n2)CC1` [Example A-27, 2-((1r,4R)-4-(dimethylcarbamoyl)cyclohexylamino)-4-((1R,3S)-3-hydroxycyclohexylamino)pyrimidine-5-carboxamide], under setting [4], the IC50 was less than 200 nM.

Regarding `C[C@@H]1CC[C@@H](Nc2nc(N[C@H]3CC[C@H](OC(F)F)CC3)ncc2C(N)=O)C[C@H]1O` [Example A-173, 2-((1r,4R)-4-(difluoromethoxy)cyclohexylamino)-4-((1R,3R,4R)-3-hydroxy-4-methylcyclohexylamino)pyrimidine-5-carboxamide], the IC50 under setting [4] is less than 200 nM.

Consider `CCNC(=O)[C@H]1CC[C@@H](Nc2nc(NC(C)C)ncc2C(N)=O)CC1` [Example A-141, 4-((1s,4s)-4-(ethylcarbamoyl)cyclohexylamino)-2-(isopropylamino)pyrimidine-5-carboxamide], for which, under setting [4], the IC50 is 1000 to 10000 nM. In the case of `CN[C@H]1CC[C@H](Nc2ncc(C(N)=O)c(NC(C)C)n2)CC1` [Example 214, 4-(isopropylamino)-2-((1r,4r)-4-(methylamino)cyclohexylamino)pyrimidine-5-carboxamide], the IC50 under setting [1] is less than 200 nM. Still for that read-out and setting: with `CCC(C)(C)Nc1nc(N[C@H]2CC[C@H](OC)CC2)ncc1C(N)=O` [Example 381, 2-((1r,4r)-4-methoxycyclohexylamino)-4-(tert-pentylamino)pyrimidine-5-carboxamide] the figure was less than 200 nM; with `CC[C@H](Nc1nc(N[C@H]2CC[C@H](O)CC2)ncc1C(N)=O)C1CC1` [Example 384, 4-((S)-1-cyclopropylpropylamino)-2-((1r,4S)-4-hydroxycyclohexylamino)pyrimidine-5-carboxamide], less than 200 nM.

On to `CC[C@@H](C)Nc1nc(N[C@H]2CC[C@H](O)CC2)ncc1C(N)=O` [Example A-189, 4-(sec-butylamino)-2-((1r,4R)-4-hydroxycyclohexylamino)pyrimidine-5-carboxamide], for which the IC50 under setting [4] is less than 200 nM.

On to `CC(C)(C)Nc1nc(N[C@H]2CC[C@H](OC(F)F)CC2)ncc1C(N)=O` [Example 319, 4-(tert-butylamino)-2-((1r,4r)-4-(difluoromethoxy)cyclohexylamino)pyrimidine-5-carboxamide], for which the IC50 under setting [1] was less than 200 nM.

The record behind these values is patent US12129237B2, “Substituted diaminocarboxamide and diaminocarbonitrile pyrimidines, compositions thereof, and methods of treatment therewith” (SIGNAL PHARMACEUTICALS, LLC, priority 2011, dated 2024).
